According to US20080014153A1, “Topical Preparation For Application To The Skin Containing Natural Oil Of The Evening Primrose (Oenothera Biennis) (=Oleum Oenotherae) And Osmolytes Originating From Extremophilic Microorganisms” (priority 2004, published 2008):

How the values were obtained:
[1] = 0.1% (wt. percent) added to evening primrose oil preparation; room temperature, 25° C.; first occurrence of rancid smell
Protocol: The stability of the preparation was assessed based on the first occurrence of a rancid smell of the evening primrose oil.

[2] = test system: very dry, irritated and problematic skin; test: Tending effect of care product on skin; format: in vivo; settings: 0.5% (wt. percent) ectoine in evening primrose oil containing product

Row | Compound | improved evening primrose oil storage stability compared to a check preparation without diglycerol phosphates [1] | tending effect compared with evening primrose oil containing tending product of identical composition [2]
1 | diglycerol phosphate | five | –
2 | CC1=NCC[C@@H](C(=O)O)N1 [ectoine] | – | noticeably better tending effect
